Assay results taken from ChEMBL document CHEMBL5143690, “Identification of nitrofuranylchalcone tethered benzoxazole-2-amines as potent inhibitors of drug resistant Mycobacterium tuberculosis demonstrating bactericidal efficacy” (Bioorg Med Chem, 2022).
≈ marks a conversion by molar mass, not a printed value. Calls of active or inactive are those of the source. No cut-off for these calls is given here.

Assays:
Klebsiella pneumoniae = assay: Antibacterial activity against Klebsiella pneumoniae BAA 1705 assessed as reduction in bacterial growth incubated for 16 to 18 hrs by microtiter plate assay; type: functional; conditions: time 16-18 hrs
[1] = system: Mycolicibacterium fortuitum; assay: Antimycobacterial activity against Mycobacterium fortuitum ATCC 6841 assessed as inhibition of bacterial growth after 48 hrs by resazurin microtitre assay; type: functional
[2] = system: Mycobacteroides abscessus; assay: Antimycobacterial activity against Mycobacterium abscessus ATCC 19977 assessed as inhibition of bacterial growth after 48 hrs by resazurin microtitre assay; type: functional
[3] = system: Mycobacterium tuberculosis; assay: Antimycobacterial activity against Mycobacterium tuberculosis H37Rv ATCC 27294 assessed as inhibition of bacterial growth measured after 7 days by resazurin microtitre assay; type: functional; conditions: H37Rv ATCC 27294, 168 h, time 7 day
Escherichia coli = assay: Antibacterial activity against Escherichia coli ATCC 25922 assessed as reduction in bacterial growth incubated for 16 to 18 hrs by microtiter plate assay; type: functional; conditions: time 16-18 hrs
[4] = Cytotoxicity against African green monkey Vero cells assessed as reduction in cell viability measured after 72 hrs by MTT assay; type: toxicity, cell-based; conditions: chlorocebus sabaeus
Staphylococcus aureus = assay: Antibacterial activity against Staphylococcus aureus ATCC 29213 assessed as reduction in bacterial growth incubated for 16 to 18 hrs by microtiter plate assay; type: functional; conditions: time 16-18 hrs
Pseudomonas aeruginosa = assay: Antibacterial activity against Pseudomonas aeruginosa ATCC 27853 assessed as reduction in bacterial growth incubated for 16 to 18 hrs by microtiter plate assay; type: functional; conditions: time 16-18 hrs
Acinetobacter baumannii = assay: Antibacterial activity against Acinetobacter baumannii BAA 1605 assessed as reduction in bacterial growth incubated for 16 to 18 hrs by microtiter plate assay; type: functional; conditions: time 16-18 hrs
Mycobacteroides chelonae = assay: Antimycobacterial activity against Mycobacterium chelonae ATCC 6841 assessed as inhibition of bacterial growth after 48 hrs by resazurin microtitre assay; type: functional
[5] = Selectivity index, ratio of CC50 for African green monkey Vero cells to MIC for Mycobacterium tuberculosis H37Rv ATCC 27294; type: toxicity; conditions: read-out: Selectivity Index
[6] = system: Mycobacterium tuberculosis; assay: Antimycobacterial activity against Mycobacterium tuberculosis H37Rv assessed as reduction in log10CFU at 1XMIC measured after 5 to 6 days by time kill assay; type: functional, organism-based; conditions: time 5-6 day
[7] = system: Mycobacterium tuberculosis; assay: Antimycobacterial activity against Mycobacterium tuberculosis H37Rv assessed as reduction in log10CFU at 10 X MIC measured after 5 to 6 days by time kill assay; type: functional, organism-based; conditions: time 5-6 day
[8] = Metabolic stability in human liver microsomes assessed as elimination rate constant at 1 uM preincubated for 5 mins in presence of NADPH incubated up to 60 mins by LC-MS/MS analysis; type: ADME, Microsome; conditions: time 65 min
[9] = Aqueous solubility in phosphate buffer at pH 7.4 incubated for 4 hrs by HPLC analysis; type: physicochemical
[10] = Metabolic stability in human liver microsomes assessed as intrinsic clearance at 1 uM preincubated for 5 mins in presence of NADPH incubated up to 60 mins by LC-MS/MS analysis; type: ADME, Microsome; conditions: time 65 min, read-out: CLH
[11] = system: Mycobacterium tuberculosis; assay: Antimycobacterial activity against Mycobacterium tuberculosis H37Rv assessed as minimum bactericidal concentration by time kill assay; type: functional
[12] = Metabolic stability in human liver microsomes assessed as half life at 1 uM preincubated for 5 mins in presence of NADPH incubated up to 60 mins by LC-MS/MS analysis; type: ADME, Microsome; conditions: time 65 min
[13] = system: Mycobacterium tuberculosis; assay: Antimycobacterial activity against Mycobacterium tuberculosis H37Rv at 10 X MIC measured after 5 to 7 days by time kill assay; type: functional; conditions: time 5-7 day
[14] = system: Mycobacterium tuberculosis; assay: Antimycobacterial activity against Mycobacterium tuberculosis H37Rv at 1 X MIC measured after 5 to 7 days by time kill assay; type: functional; conditions: time 5-7 day

SMILES	MIC (Klebsiella pneumoniae)	MIC [1]	MIC [2]	MIC [3]	MIC (Escherichia coli)	CC50 at 72 h [4]	MIC (Staphylococcus aureus)	MIC (Pseudomonas aeruginosa)	MIC (Acinetobacter baumannii)	MIC (Mycobacteroides chelonae)	selectivity ratio [5]	Activity [6]	Activity [7]	k el at 1 h, 1 µM [8]	solubility at 4 h [9]	microsomal CLint at 1 µM [10]	MBC [11]	half-life at 1 µM [12]	Activity [13]	Activity [14]
CC(C)(C)c1ccc2oc(Nc3ccc(C(=O)/C=C/c4ccc([N+](=O)[O-])o4)cc3)nc2c1	> 64 µg/mL	> 64 µg/mL	> 64 µg/mL	0.5 µg/mL (≈ 1.16 µM)	> 64 µg/mL	5 µg/mL (≈ 11.6 µM)	8 µg/mL (≈ 18.5 µM)	> 64 µg/mL	> 64 µg/mL	> 64 µg/mL	< 10	–	–	–	–	–	–	–	–	–
O=C(/C=C/c1ccc([N+](=O)[O-])o1)c1ccc(Nc2nc3ccccc3o2)cc1	> 64 µg/mL	> 64 µg/mL	> 64 µg/mL	0.12 µg/mL (≈ 0.32 µM)	> 64 µg/mL	5 µg/mL (≈ 13.3 µM)	4 µg/mL (≈ 10.7 µM)	> 64 µg/mL	> 64 µg/mL	> 64 µg/mL	40	Active	Active	–	–	–	–	–	–	–
O=C(/C=C/c1ccc([N+](=O)[O-])o1)c1ccc(Nc2nc3cc(Cl)ccc3o2)cc1	> 64 µg/mL	> 64 µg/mL	> 64 µg/mL	0.03 µg/mL (≈ 0.0732 µM)	> 64 µg/mL	5 µg/mL (≈ 12.2 µM)	4 µg/mL (≈ 9.76 µM)	> 64 µg/mL	> 64 µg/mL	> 64 µg/mL	160	–	–	0.000333 s⁻¹	2.5 µg/mL (≈ 6.1 µM)	38.5 µL/min/mg	0.03 µg/mL (≈ 0.0732 µM)	34.6 min	100%	100%
O=C(/C=C/c1ccncc1)c1ccc(Nc2nc3ccccc3o2)cc1	> 64 µg/mL	> 64 µg/mL	> 64 µg/mL	16 µg/mL (≈ 46.9 µM)	> 64 µg/mL	–	> 64 µg/mL	> 64 µg/mL	> 64 µg/mL	> 64 µg/mL	–	–	–	–	–	–	–	–	–	–
COc1ccc(C(=O)/C=C/c2cc(OC)c(OC)c(OC)c2)cc1Nc1nc2ccccc2o1	> 64 µg/mL	> 64 µg/mL	> 64 µg/mL	64 µg/mL (≈ 139 µM)	> 64 µg/mL	–	> 64 µg/mL	> 64 µg/mL	> 64 µg/mL	> 64 µg/mL	–	–	–	–	–	–	–	–	–	–
COc1ccc(OC)c(/C=C/C(=O)c2ccc(Nc3nc4ccccc4o3)cc2)c1	> 64 µg/mL	> 64 µg/mL	> 64 µg/mL	> 64 µg/mL	> 64 µg/mL	–	> 64 µg/mL	> 64 µg/mL	> 64 µg/mL	> 64 µg/mL	–	–	–	–	–	–	–	–	–	–
COc1cc(/C=C/C(=O)c2ccc(Nc3nc4cc(C)ccc4o3)cc2)cc(OC)c1OC	> 64 µg/mL	> 64 µg/mL	> 64 µg/mL	16 µg/mL (≈ 36 µM)	> 64 µg/mL	–	> 64 µg/mL	> 64 µg/mL	> 64 µg/mL	> 64 µg/mL	–	–	–	–	–	–	–	–	–	–
CN(C)c1ccc(/C=C/C(=O)c2ccc(Nc3nc4ccccc4o3)cc2)cc1	> 64 µg/mL	> 64 µg/mL	> 64 µg/mL	64 µg/mL (≈ 167 µM)	> 64 µg/mL	–	> 64 µg/mL	> 64 µg/mL	> 64 µg/mL	> 64 µg/mL	–	–	–	–	–	–	–	–	–	–
O=C(/C=C/c1ccc(Cl)cc1)c1ccc(Nc2nc3ccccc3o2)cc1	> 64 µg/mL	> 64 µg/mL	> 64 µg/mL	64 µg/mL (≈ 171 µM)	> 64 µg/mL	–	> 64 µg/mL	> 64 µg/mL	> 64 µg/mL	> 64 µg/mL	–	–	–	–	–	–	–	–	–	–
COc1ccc(/C=C/C(=O)c2ccc(Nc3nc4ccccc4o3)cc2)c(OC)c1	> 64 µg/mL	> 64 µg/mL	> 64 µg/mL	> 64 µg/mL	> 64 µg/mL	–	> 64 µg/mL	> 64 µg/mL	> 64 µg/mL	> 64 µg/mL	–	–	–	–	–	–	–	–	–	–
CO[C@H]1/C=C/O[C@@]2(C)Oc3c(C)c(O)c4c(O)c(c(/C=N/N5CCN(C)CC5)c(O)c4c3C2=O)NC(=O)/C(C)=C\C=C\[C@H](C)[C@H](O)[C@@H](C)[C@@H](O)[C@@H](C)[C@H](OC(C)=O)[C@@H]1C [RIFAMPIN]	–	–	–	0.03 µg/mL (≈ 0.0365 µM)	–	–	–	–	–	–	–	Active	Active	–	–	–	–	–	–	–
O=C(/C=C/c1ccc([N+](=O)[O-])o1)c1ccc(Nc2nc3cc([N+](=O)[O-])ccc3o2)cc1	> 64 µg/mL	> 64 µg/mL	> 64 µg/mL	0.03 µg/mL (≈ 0.0714 µM)	> 64 µg/mL	5 µg/mL (≈ 11.9 µM)	4 µg/mL (≈ 9.52 µM)	> 64 µg/mL	> 64 µg/mL	> 64 µg/mL	> 800	Active	Active	–	–	–	–	–	–	–
COc1ccc(C(=O)/C=C/c2ccc([N+](=O)[O-])o2)cc1Nc1nc2ccccc2o1	> 64 µg/mL	> 64 µg/mL	> 64 µg/mL	0.25 µg/mL (≈ 0.617 µM)	> 64 µg/mL	5 µg/mL (≈ 12.3 µM)	8 µg/mL (≈ 19.7 µM)	> 64 µg/mL	> 64 µg/mL	> 64 µg/mL	< 10	–	–	–	–	–	–	–	–	–
COc1cc(OC)c(OC)cc1/C=C/C(=O)c1ccc(Nc2nc3ccccc3o2)cc1	> 64 µg/mL	> 64 µg/mL	> 64 µg/mL	16 µg/mL (≈ 37.2 µM)	> 64 µg/mL	–	> 64 µg/mL	> 64 µg/mL	> 64 µg/mL	> 64 µg/mL	–	–	–	–	–	–	–	–	–	–
Cc1ccc2oc(Nc3ccc(C(=O)/C=C/c4ccc([N+](=O)[O-])o4)cc3)nc2c1	> 64 µg/mL	> 64 µg/mL	> 64 µg/mL	0.06 µg/mL (≈ 0.154 µM)	> 64 µg/mL	5 µg/mL (≈ 12.8 µM)	4 µg/mL (≈ 10.3 µM)	> 64 µg/mL	> 64 µg/mL	> 64 µg/mL	80	–	–	–	–	–	–	–	–	–
COc1cc(/C=C/C(=O)c2ccc(Nc3nc4ccccc4o3)cc2)cc(OC)c1OC	> 64 µg/mL	> 64 µg/mL	> 64 µg/mL	8 µg/mL (≈ 18.6 µM)	> 64 µg/mL	–	> 64 µg/mL	> 64 µg/mL	> 64 µg/mL	> 64 µg/mL	–	–	–	–	–	–	–	–	–	–
O=C(/C=C/c1ccc([N+](=O)[O-])o1)c1cccc(Nc2nc3ccccc3o2)c1	> 64 µg/mL	> 64 µg/mL	> 64 µg/mL	0.06 µg/mL (≈ 0.16 µM)	> 64 µg/mL	5 µg/mL (≈ 13.3 µM)	16 µg/mL (≈ 42.6 µM)	> 64 µg/mL	> 64 µg/mL	> 64 µg/mL	80	–	–	–	–	–	–	–	–	–
